Data published in ChEMBL document CHEMBL1144770, “Synthesis, SAR and in vitro evaluation of new cyclic Arg-Gly-Asp pseudopentapeptides containing a s-cis peptide bond as integrin alphavbeta3 and alphavbeta5 ligands” (Bioorg Med Chem, 2008).

How the values were obtained:
Integrin alpha-V/beta-5 = Integrin alpha-V/beta-5 (Homo sapiens, UniProt P06756+P18084); test: Displacement of [125I]Echistatin from human placental integrin alpha-V-beta-5 receptor
Integrin alpha-V/beta-3 = Integrin alpha-V/beta-3 (Homo sapiens, UniProt P05106+P06756); test: Displacement of [125I]echistatin from human placental integrin alphaVbeta3 receptor
Integrin alpha-V/beta-3, sequence (P05106 27-788 limits assumed): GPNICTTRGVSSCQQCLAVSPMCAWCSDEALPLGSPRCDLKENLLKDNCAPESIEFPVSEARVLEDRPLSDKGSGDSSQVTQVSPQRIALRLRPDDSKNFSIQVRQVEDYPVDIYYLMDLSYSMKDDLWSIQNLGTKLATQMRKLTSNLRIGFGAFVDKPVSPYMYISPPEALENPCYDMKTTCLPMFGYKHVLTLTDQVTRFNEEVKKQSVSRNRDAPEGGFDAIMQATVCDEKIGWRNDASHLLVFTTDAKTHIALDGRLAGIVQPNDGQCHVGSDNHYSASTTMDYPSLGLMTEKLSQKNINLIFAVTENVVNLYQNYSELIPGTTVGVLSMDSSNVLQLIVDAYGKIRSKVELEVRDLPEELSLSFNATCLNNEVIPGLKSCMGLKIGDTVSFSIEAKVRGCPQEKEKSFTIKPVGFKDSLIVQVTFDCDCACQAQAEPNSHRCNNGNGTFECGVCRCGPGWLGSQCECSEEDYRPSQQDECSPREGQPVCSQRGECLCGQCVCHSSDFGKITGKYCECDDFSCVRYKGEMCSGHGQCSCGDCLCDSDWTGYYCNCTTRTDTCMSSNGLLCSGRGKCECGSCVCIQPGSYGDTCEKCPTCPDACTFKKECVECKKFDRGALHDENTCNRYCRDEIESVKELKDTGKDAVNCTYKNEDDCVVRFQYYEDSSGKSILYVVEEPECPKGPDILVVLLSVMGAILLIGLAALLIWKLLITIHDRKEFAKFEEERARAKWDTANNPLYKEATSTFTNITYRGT
Integrin alpha-V/beta-3, sequence (P06756 31-889 limits assumed): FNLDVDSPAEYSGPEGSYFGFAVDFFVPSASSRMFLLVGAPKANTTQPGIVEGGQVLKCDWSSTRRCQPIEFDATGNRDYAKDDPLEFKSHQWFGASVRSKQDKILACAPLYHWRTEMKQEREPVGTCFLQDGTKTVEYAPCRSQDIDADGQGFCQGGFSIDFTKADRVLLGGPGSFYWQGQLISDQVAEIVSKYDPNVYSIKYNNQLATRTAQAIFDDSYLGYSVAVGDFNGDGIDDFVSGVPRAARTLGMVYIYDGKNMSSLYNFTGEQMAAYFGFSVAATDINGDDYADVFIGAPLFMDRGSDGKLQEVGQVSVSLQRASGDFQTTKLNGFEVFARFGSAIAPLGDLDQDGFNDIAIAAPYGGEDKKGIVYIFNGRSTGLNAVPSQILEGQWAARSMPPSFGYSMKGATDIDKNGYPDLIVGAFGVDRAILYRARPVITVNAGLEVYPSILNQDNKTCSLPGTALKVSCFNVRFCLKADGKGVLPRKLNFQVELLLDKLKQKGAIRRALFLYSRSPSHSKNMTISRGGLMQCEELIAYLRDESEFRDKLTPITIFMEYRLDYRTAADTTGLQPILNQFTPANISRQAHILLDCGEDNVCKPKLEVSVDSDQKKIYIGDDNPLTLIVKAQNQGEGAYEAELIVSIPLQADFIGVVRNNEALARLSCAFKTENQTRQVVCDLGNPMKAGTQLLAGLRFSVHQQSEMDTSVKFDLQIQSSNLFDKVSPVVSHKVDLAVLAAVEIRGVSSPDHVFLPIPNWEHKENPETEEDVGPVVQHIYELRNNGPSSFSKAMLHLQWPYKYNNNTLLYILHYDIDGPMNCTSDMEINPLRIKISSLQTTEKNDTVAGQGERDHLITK
Integrin alpha-V/beta-3, sequence (P06756 891-1048 limits assumed): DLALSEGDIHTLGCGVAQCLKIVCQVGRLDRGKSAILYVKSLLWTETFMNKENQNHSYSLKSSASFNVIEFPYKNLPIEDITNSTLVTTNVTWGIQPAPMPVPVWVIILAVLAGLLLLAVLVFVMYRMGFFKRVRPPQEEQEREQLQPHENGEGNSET

Integrin alpha-V/beta-5, sequence (P06756 31-889 limits assumed): as the sequence (P06756 31-889 limits assumed) above
Integrin alpha-V/beta-5, sequence (P06756 891-1048 limits assumed): as the sequence (P06756 891-1048 limits assumed) above
Integrin alpha-V/beta-5, sequence (P18084 24-799 limits assumed): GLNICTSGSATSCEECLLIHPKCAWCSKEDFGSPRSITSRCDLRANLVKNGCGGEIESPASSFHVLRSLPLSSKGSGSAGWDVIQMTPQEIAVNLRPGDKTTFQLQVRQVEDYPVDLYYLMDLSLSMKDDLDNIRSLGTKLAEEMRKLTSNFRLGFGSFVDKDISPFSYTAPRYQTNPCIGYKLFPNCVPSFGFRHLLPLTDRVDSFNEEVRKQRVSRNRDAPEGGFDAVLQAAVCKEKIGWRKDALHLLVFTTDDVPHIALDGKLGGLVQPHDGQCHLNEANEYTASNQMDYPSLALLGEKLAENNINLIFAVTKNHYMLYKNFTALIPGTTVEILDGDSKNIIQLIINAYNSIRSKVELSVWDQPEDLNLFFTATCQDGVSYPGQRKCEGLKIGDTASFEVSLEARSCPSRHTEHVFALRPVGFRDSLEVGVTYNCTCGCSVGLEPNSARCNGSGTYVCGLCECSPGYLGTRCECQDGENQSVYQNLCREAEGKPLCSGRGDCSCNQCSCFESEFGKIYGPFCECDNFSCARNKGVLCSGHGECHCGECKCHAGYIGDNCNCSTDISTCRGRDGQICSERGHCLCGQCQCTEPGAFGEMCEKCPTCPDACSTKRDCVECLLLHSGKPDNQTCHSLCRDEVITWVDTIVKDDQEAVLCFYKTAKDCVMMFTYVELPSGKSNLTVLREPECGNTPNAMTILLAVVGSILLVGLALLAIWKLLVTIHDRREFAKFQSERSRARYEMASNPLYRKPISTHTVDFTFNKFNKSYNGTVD

## NC(N)=NCCC[C@@H]1NC(=O)[C@]23CCCN2C(=O)[C@@H](C3)NC(=O)[C@H](CC(=O)O)NC(=O)CNC1=O
Integrin alpha-V/beta-5
  IC50: 7960 nM
Integrin alpha-V/beta-3
  IC50: 2150 nM

## N=C(N)NCCC[C@@H]1NC(=O)[C@@]23CCCN2C(=O)[C@H](C3)NC(=O)[C@H](CC(=O)O)NC(=O)CNC1=O
Integrin alpha-V/beta-5
  IC50: 14.3 nM
Integrin alpha-V/beta-3
  IC50: 34.4 nM
